Measured values from PMC12222587, “A2B adenosine receptor-triggered intracellular calcium mobilization: Cell type-dependent involvement of Gi, Gq, Gs proteins and protein kinase C” (Purinergic Signalling, 2025).
Entries after “also recorded” stand apart in the source; their conditions may differ.

What was measured:
P2Y1R = P2Y1R (Homo sapiens, UniProt P47900); assay: Intracellular calcium mobilization, T24 bladder cancer cells, native P2Y1R (MRS2365); assay type: cell-based; settings: for Effect on native P2Y1R (MRS2365)-triggered calcium mobilization: YM 300 nM, FR 300 nM, PTX 200 ng/ml overnight
Chain of P2Y1R (P47900 whole entry): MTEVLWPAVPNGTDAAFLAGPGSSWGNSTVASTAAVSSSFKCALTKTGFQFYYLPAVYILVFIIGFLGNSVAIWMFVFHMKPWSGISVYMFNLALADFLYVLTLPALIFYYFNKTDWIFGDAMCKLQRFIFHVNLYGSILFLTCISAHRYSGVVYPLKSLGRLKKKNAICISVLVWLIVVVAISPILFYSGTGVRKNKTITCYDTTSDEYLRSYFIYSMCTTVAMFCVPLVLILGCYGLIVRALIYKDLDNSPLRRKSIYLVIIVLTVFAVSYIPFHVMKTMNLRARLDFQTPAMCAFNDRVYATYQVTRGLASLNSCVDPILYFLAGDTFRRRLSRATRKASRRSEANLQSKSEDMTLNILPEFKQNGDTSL

A2BAR = molecular target: T1, A2BAR (Homo sapiens, UniProt P29275); assay: Intracellular calcium mobilization, T24 bladder cancer cells, native A2BAR (NECA); assay type: cell-based; settings: T24 cells; for Effect on native A2BAR (NECA)-triggered calcium mobilization: YM 300 nM, FR 300 nM, PTX 200 ng/ml, CTX 500 ng/ml overnight, other inhibitors 20 min before NECA
T1 sequence (P29275 1-332): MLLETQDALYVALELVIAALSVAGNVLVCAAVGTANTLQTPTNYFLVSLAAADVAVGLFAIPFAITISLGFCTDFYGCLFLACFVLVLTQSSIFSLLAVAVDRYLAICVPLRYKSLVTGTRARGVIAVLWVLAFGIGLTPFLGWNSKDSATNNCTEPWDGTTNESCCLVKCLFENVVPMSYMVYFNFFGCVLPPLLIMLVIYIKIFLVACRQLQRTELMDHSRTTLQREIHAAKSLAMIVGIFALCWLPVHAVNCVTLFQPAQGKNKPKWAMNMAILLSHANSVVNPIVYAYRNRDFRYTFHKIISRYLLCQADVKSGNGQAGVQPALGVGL

[1] = test system: endogenous adenosine receptors; assay: cAMP accumulation, MDA-MB-231 cells expressing endogenous adenosine receptors; assay type: cell-based, human
Procedure: HEK293, T24 bladder cancer and MDA-MB-231 breast cell lines were cultured in DMEM medium containing 10% fetal bovine serum, 100 units/ml penicillin, 100 μg/ml streptomycin, and 2 μmol/ml glutamine. For the assay of 3′,5′-cyclic adenosine monophosphate (cAMP), cells were plated in 96-well (4 × 10^4 cells/well) clear plates in 100 μl of medium overnight. Cell culture medium was then replaced with 80 µl HBSS buffer containing 20 mM HEPES, phosphodiesterase inhibitor rolipram (10 μM), and 3 units/ml adenosine deaminase (Worthington Biochemical, Lakewood, NJ, USA) for 30 min followed by agonist addition to the mixture, which was then incubated for 20 min. The treatment of YM or FR was 20 min before agonist addition.

LPA receptor = assay: Intracellular calcium mobilization, HEK293 cells, endogenous LPA receptor; assay type: cell-based, human; settings: endogenous LPA receptor, read-out: EC50 of induced intracellular calcium mobilization
β2-adrenergic receptor = β2-adrenergic receptor (Homo sapiens, UniProt P07550); assay: Intracellular calcium mobilization, T24 bladder cancer cells, endogenous β2-adrenergic receptor; assay type: cell-based; settings: T24 cells, FR 300 nM, PMA 1 µM
Chain of β2-adrenergic receptor (P07550 whole entry): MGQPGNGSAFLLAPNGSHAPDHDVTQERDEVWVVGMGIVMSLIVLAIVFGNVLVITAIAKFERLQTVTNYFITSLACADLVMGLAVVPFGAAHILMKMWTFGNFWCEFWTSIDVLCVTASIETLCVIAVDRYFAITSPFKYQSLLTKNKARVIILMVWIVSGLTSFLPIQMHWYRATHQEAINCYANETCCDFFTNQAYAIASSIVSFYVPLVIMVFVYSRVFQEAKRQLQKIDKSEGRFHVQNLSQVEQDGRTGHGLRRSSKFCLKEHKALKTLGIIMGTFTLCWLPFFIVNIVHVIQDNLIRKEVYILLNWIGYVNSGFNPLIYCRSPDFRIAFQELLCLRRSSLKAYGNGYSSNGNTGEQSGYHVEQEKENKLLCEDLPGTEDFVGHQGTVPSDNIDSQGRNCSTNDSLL

[2] = GO 20 min, then PMA 20 min before agonist

Compound | Effect on native P2Y1R (MRS2365)-triggered calcium mobilization (P2Y1R) | Effect on native A2BAR (NECA)-triggered calcium mobilization (A2BAR) | EC50 [1] [nM] | other results
COc1ccc2c(c1)c(C1=C(c3c[nH]c4ccccc34)C(=O)NC1=O)cn2CCCN(C)C [GO] | significantly enhanced | – | – | Effect of pretreatment on the PMA effect at P2Y1R-triggered Ca2+ increase (P2Y1R; [2]): eliminated the effect of PMA; Effect of pretreatment on the PMA effect at A2BAR-triggered Ca2+ increase (A2BAR; [2]): eliminated the effect of PMA
COc1ccc2c(c1)CC[C@@H]1[C@@H]2CC[C@]2(C)[C@@H](NCCCCCCN3C(=O)C=CC3=O)CC[C@@H]12 [U73122] | – | completely inhibited | – | –
CCNC(=O)[C@H]1O[C@@H](n2cnc3c(N)nc(NCCc4ccc(CCC(=O)O)cc4)nc32)[C@H](O)[C@@H]1O [CGS21680] | – | – | 2240 ± 850 | –
lysophosphatidic acid [LPA] | – | – | – | EC50 (LPA receptor): 4590 nM
CCCCCCCCCCCCCC(=O)O[C@@H]1[C@@H](C)[C@@]2(O)[C@@H](C=C(CO)C[C@]3(O)C(=O)C(C)=C[C@@H]23)[C@@H]2C(C)(C)[C@]12OC(C)=O [PMA, phorbol 12-myristate 13-acetate] | completely eliminated | partially diminished; also recorded: PMA partially sensitive (8) | – | Effect on isoproterenol-induced calcium mobilization (β2-adrenergic receptor) (β2-adrenergic receptor): completely diminished; Effect on formoterol-induced calcium mobilization (β2-adrenergic receptor) (β2-adrenergic receptor; YM 1 µM, PTX 200 ng/ml, CTX 500 ng/ml): completely diminished; also recorded: PMA completely sensitive (8)
CCNC(=O)[C@H]1O[C@@H](n2cnc3c(N)ncnc32)[C@H](O)[C@@H]1O [NECA, adenosine-5′-N-ethyluronamide] | – | – | 73.1 ± 18.2 | –
